From US7572252B1 (priority 1995, dated 2009)

Experiment: Transdermal electrotransport goserelin delivery at two constant current densities (Example 4)
Type: in vivo, human
Experimental: This study was undertaken to evaluate the relationship between current density and drug flux in the transdermal electrotransport delivery of goserelin. The study involved the application of electrotransport devices, applying constant current, to 12 normal male volunteers for a duration of 8 hours.
The two electrotransport treatment regimens in this study differed only in applied current density levels. The electrotransport devices delivered goserelin through the skin from polyvinyl alcohol (PVOH)-based donor hydrogels having a skin-contact surface area of 4 cm^2. The gels contained an aqueous goserelin solution. The current density levels used in this study were 50 and 100 μA/cm^2. After an 8 hour treatment period, the electrotransport devices were removed. The skin site was then washed to remove any residual goserelin. All 12 volunteers received each treatment seven days apart.
For each treatment, seven blood samples were taken over a 24 hour period commencing with the application of current from the electrotransport devices. Serum goserelin concentrations from each patient were used to calculate mean drug flux and the mean total amount of drug delivered.

## CC(C)C[C@H](NC(=O)[C@@H](COC(C)(C)C)NC(=O)[C@H](Cc1ccc(O)cc1)NC(=O)[C@H](CO)NC(=O)[C@H](Cc1c[nH]c2ccccc12)NC(=O)[C@H](Cc1cnc[nH]1)NC(=O)[C@@H]1CCC(=O)N1)C(=O)N[C@@H](CCCNC(=N)N)C(=O)N1CCC[C@H]1C(=O)NNC(N)=O [goserelin]
50 microA/cm^2 constant current, 4 cm^2, 8 h
  average transdermal goserelin flux: 5.8 microgram per hour
100 microA/cm^2 constant current, 4 cm^2, 8 h
  average transdermal flux of goserelin: 21.6 µg/h
Current density rises from 50 to 100 μA/cm^2
  increase in drug flux: almost four-fold increase
